Data reported in US20060229305A1, “Tetrahydronaphthalene derivatives, process for their production and their use as anti-inflammatory agents” (priority 2005, published 2006).
pIC50: −log10 of the molar value.

Assays:
[1] = molecular target: T1, glucocorticoid receptor (GR) (Homo sapiens, UniProt P04150); assay: Binding to the glucocorticoid receptor, recombinant receptor in Sf9 cytosol, vs [3H]-dexamethasone; conditions: cytosol of Sf9 cells, [3H]-dexamethasone as reference
T1 construct: made in house; host or cells: Sf9 cells infected with recombinant baculovirus (cytosol preparation)
T1 sequence (P04150 1-777): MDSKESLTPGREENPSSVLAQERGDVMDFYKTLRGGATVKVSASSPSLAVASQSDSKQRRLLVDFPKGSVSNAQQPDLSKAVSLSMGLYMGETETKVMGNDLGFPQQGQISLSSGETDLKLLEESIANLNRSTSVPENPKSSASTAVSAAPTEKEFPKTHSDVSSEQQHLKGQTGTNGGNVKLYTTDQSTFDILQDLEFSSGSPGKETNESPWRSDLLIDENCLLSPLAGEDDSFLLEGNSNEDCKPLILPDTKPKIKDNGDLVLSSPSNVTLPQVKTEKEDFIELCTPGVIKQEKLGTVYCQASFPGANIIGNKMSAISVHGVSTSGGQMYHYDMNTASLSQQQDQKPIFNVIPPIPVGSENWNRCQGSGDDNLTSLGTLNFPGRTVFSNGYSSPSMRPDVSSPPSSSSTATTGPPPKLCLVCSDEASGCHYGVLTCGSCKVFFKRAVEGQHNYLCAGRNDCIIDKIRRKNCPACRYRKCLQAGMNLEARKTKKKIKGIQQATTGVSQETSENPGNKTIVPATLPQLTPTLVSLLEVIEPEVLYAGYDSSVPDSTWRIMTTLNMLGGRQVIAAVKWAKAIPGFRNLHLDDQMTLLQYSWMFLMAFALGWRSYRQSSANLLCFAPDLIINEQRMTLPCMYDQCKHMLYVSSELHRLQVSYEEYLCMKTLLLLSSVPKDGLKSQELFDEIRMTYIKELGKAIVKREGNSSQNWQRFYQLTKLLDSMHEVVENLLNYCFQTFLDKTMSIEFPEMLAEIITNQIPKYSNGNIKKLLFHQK
Excerpt: (§1) The binding of the substances to the glucocorticoid receptor (GR) and other steroid-hormone receptors (mineral corticoid receptor (MR), progesterone receptor (PR) and androgen receptor (AR)) is examined with the aid of recombinantly produced receptors. Cytosol preparations of Sf9 cells, which had been infected with recombinant baculoviruses that code for the GR, are used for the binding studies. In comparison to the reference substance [^3H]-dexamethasone, the substances show a high affinity to the GR.

[2] = molecular target: T2, progesterone receptor (PR) (Homo sapiens, UniProt P06401); assay: Binding to the progesterone receptor, recombinantly produced receptor
T2 construct: made in house
T2 sequence (P06401 1-933): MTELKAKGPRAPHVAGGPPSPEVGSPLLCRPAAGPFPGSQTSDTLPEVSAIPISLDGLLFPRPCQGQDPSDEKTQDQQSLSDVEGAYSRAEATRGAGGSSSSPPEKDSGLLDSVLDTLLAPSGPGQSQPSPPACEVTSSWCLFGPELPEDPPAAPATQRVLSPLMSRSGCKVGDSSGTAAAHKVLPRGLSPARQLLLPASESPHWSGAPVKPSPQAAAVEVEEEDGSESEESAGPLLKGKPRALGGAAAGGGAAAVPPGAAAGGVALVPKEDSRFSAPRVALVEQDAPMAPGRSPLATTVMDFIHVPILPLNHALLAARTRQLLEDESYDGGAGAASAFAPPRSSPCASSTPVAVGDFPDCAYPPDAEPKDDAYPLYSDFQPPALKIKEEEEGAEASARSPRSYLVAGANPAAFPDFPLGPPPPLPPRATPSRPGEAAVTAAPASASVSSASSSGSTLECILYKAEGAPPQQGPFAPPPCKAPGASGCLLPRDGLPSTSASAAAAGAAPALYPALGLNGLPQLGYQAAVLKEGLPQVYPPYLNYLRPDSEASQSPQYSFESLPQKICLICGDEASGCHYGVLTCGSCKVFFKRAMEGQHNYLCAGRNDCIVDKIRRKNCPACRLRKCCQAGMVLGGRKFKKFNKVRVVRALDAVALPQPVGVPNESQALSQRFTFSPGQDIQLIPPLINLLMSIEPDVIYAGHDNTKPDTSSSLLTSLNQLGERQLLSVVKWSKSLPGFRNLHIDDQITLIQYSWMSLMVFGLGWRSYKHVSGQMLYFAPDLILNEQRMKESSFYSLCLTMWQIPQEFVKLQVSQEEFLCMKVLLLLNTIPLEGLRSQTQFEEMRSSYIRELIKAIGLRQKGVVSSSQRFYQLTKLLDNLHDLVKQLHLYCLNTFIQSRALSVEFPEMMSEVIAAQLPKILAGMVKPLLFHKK
Excerpt: as §1

[3] = system: cytokine IL-8 secretion, human monocyte cell line THP-1; assay: Inhibition of LPS-triggered IL-8 secretion in THP-1 cells (ELISA); format: cell-based
Description: The concentration of the cytokines was determined in the supernatant by means of commercially available ELISA kits.

`Cc1ncc2c(NC3c4ccc(F)c(O)c4C(C)C(C)C3(O)C(F)(F)F)cc(F)cc2n1` (racemic) [Example 3, 2-Fluoro-5-[(7-fluoro-2-methylquinazolin-5-yl)amino]-5,6,7,8-tetrahydro-7,8-dimethyl-6-(trifluoromethyl)naphthalene-1,6-diol] showed a pIC50 [1] of 7.44, a pIC50 [2] of less than 6.00 and a pIC50 ([3]; Homo sapiens, LPS-triggered IL-8 secretion, THP-1, ELISA of supernatant, read-out: IC50(IL8)) of 6.89. The “efficiency relative to [3H]-dexamethasone as a standard” value ([3]; IL-8 inhibition, THP-1, LPS) was 80%.
